Laboratory results from BindingDB's records for doi:10.7270/Q2ZG6QP2 (Nmmlsc, 2010).

biological target: T1, Integrin alpha-4 (Homo sapiens, UniProt P13612); assay: VLA-4 allosteric modulator potency, dose response, cell-based, U937, HUTS-21 LIBS antibody, flow cytometry (AID 449766); conditions: not given
T1 sequence (P13612 whole entry): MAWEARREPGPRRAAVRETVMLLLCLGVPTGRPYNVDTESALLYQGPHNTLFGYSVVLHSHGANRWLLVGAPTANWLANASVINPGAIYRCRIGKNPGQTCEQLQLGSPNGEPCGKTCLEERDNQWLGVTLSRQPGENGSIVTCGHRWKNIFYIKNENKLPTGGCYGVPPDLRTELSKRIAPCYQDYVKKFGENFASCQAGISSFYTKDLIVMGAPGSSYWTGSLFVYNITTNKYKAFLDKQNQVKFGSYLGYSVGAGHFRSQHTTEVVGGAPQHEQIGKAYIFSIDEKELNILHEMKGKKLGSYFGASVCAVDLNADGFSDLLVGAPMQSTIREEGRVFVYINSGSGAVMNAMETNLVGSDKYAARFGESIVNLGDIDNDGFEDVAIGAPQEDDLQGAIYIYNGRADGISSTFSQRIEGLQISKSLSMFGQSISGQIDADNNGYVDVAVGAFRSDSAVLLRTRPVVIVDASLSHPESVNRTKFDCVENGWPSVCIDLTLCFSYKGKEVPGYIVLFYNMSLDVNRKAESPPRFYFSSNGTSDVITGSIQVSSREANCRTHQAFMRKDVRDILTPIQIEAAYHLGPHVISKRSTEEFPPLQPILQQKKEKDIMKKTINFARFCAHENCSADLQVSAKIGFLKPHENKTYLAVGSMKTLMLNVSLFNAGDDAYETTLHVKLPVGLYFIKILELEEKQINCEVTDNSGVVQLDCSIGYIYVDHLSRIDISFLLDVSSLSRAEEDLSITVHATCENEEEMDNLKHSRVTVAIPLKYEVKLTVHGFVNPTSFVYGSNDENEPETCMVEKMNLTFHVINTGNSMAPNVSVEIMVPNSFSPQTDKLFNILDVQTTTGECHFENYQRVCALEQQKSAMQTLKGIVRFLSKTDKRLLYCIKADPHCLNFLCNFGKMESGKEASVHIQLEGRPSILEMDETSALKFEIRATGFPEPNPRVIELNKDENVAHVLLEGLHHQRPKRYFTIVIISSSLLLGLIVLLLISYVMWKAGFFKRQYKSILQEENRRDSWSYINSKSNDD

| SMILES | EC50 |
| --- | --- |
| COc1cccc(-c2sc3ccccc3c2-c2ccc(OCCN3CCCC3)cc2)c1 | > 30 µM |
| COC(=O)[C@@H]1[C@@H](C(=O)OC)C2(c3ccccc3-c3ccccc32)N(c2ccc(Cl)cc2)N1C#N [(3'S,4'R)-1'-(4-chlorophenyl)-2'-cyanospiro[fluorene-9,5'-pyrazolidine]-3',4'-dicarboxylic acid dimethyl ester] | > 30 µM |
| O=C(COc1ccc(C=NNC(=O)c2cc3ccccc3o2)cc1Cl)Nc1ccccc1 [SMR000160815] | > 30 µM |
| COC(=O)C1CN(C#N)N(c2ccc(Cl)cc2)C12c1ccccc1-c1ccccc12 (configuration not stated) [2'-(4-chlorophenyl)-1'-cyano-4'-spiro[fluorene-9,3'-pyrazolidine]carboxylic acid methyl ester] | 6.71 µM |
| CCOC(=O)COc1ccccc1/C=C\[N+](=O)[O-] [SMR000204386] | 2.45 µM |
| COC(=O)C[C@]1(C(=O)OC)CN(C#N)N(c2ccc(Cl)cc2)C12c1ccccc1-c1ccccc12 [methyl 1-(4-chlorophenyl)-2-cyano-4-(2-methoxy-2-oxoethyl)spiro[pyrazolidine-5,9'-(9'H)-fluorene]-4-carboxylate] | > 30 µM |
| C=C(C=O)C[C@@H]1C[C@H](O)C2OC3C[C@]4(C)OC5/C=C\CC6OC7C(CC=CCC6OC5CCCC4OC3CC2O1)OC1CC2OC3CC(=O)OC3C[C@@H](C)C[C@@]2(C)OC1C[C@@H]7C (some centres not stated) [MLS002320514] | 2.15 µM |
| COc1ccc(-c2sc3ccccc3c2-c2ccc(OCCN(C)C)cc2)cc1 [MLS002473632] | > 30 µM |
| CC(NC(=O)/C(C#N)=C/c1ccc(Cl)c([N+](=O)[O-])c1)c1ccccc1 (configuration not stated) [(E)-3-(4-chloro-3-nitrophenyl)-2-cyano-N-(1-phenylethyl)prop-2-enamide] | 0.95 µM |
| CCOCCCNC(=O)/C(C#N)=C/c1ccc(Cl)c([N+](=O)[O-])c1 [(E)-3-(4-chloro-3-nitrophenyl)-2-cyano-N-(3-ethoxypropyl)-2-propenamide] | 3.59 µM |
| COc1cccc(-c2sc3ccccc3c2-c2ccc(OCCN(C)C)cc2)c1 | 12.4 µM |
| c1ccc(-c2sc3ccccc3c2-c2ccc(OCCN3CCCC3)cc2)cc1 [1-[2-[4-(2-phenyl-1-benzothiophen-3-yl)phenoxy]ethyl]pyrrolidine] | 14.8 µM |
| CCOC(=O)C(=Cc1ccc(OC(F)F)cc1)C1=Nn2c(nnc2-c2ccc(Cl)cc2)SC1 [ethyl (Z)-2-[3-(4-chlorophenyl)-7H-[1,2,4]triazolo[3,4-b][1,3,4]thiadiazin-6-yl]-3-[4-(difluoromethoxy)phenyl]prop-2-enoate] | 7.79 µM |
| CN(C)CCOc1ccc(-c2c(-c3ccccc3)sc3ccccc23)cc1 [SMR001397792] | > 30 µM |
| Cc1ccc(NC(=O)c2cc(N3C(=O)C=CC3=O)ccc2N2CCOCC2)cc1Cl [N-(3-chloro-4-methylphenyl)-5-(2,5-dioxo-2,5-dihydro-1H-pyrrol-1-yl)-2-(4-morpholinyl)benzamide] | 5.5 µM |
| C=C1C(O)[C@@H]2O[C@]3(CC[C@H](/C=C/C(C)[C@@H]4CC(C)=CC5(O[C@H](C[C@@](C)(O)CO)CCC5O)O4)O3)CC[C@H]2O[C@@H]1C(O)CC(C)[C@H]1OC2(CCCCO2)CCC1C (some centres not stated) [MLS002320507] | 0.61 µM |
| COc1ccc(C(=O)c2cc([N+](=O)[O-])ccc2N2CCOCC2)cc1 [MLS000663963] | > 30 µM |
| C[S+]([O-])c1nc(-c2ccc(Br)cc2)cc(-c2ccccc2)c1C#N (configuration not stated) [6-(4-bromophenyl)-2-(methylsulfinyl)-4-phenylnicotinonitrile] | 2.67 µM |

same assay, conditions: inactive by the depositor's call

| SMILES | EC50 |
| --- | --- |
| FC(F)(F)c1nnc(-c2ccccc2)nc1Sc1ccc(Cl)cc1 [SMR000180067] | 0.73 µM |
| COc1cccc(-c2sc3ccccc3c2-c2ccc(OCCN3CCCCC3)cc2)c1 [SMR001397793] | 5.46 µM |
| CC1(C)C[C@H]2C=C(C=O)[C@]3(C=O)C[C@]3(C)[C@H]2C1 | 3.15 µM |
| COc1cccc(-c2sc3ccc(OC)cc3c2-c2ccc(OCCN(C)C)cc2)c1 [SMR001397780] | 0.22 µM |
